28 molecules from PubChem BioAssay (NCI) can be followed below.

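Briefly, cells in 96-well plates were exposed to five compound concentrations for 48 h, and endpoints were estimated by linear interpolation. GI50 = concentration required for 50% inhibition of growth. TGI: concentration producing complete growth inhibition.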 Some results are limits rather than exact numbers.

What all share (assay): inhibition of tumour cell growth, NCI panel, 48 h
For assay [1], the system named is SNB-19 CNS.
The subject of assay [2] is OVCAR-4 ovarian.
Assay [3] concerns SF-268 CNS.
The test system of assay [4] is NCI/ADR-RES ovarian.
Assay [5] deals with MDA-MB-231 breast.
For assay [6], the system named is DU-145 prostate.
Assay [7] has as its system UACC-62 melanoma.
The subject of assay [8] is SN12C renal.
The test system of assay [9] is HOP-62 NSCLC.
Assay [10] concerns MCF7 breast.

Consider `CC(=O)n1nc(-c2ccccc2)n(/N=C/c2ccc([N+](=O)[O-])cc2)c1=O`, for which the TGI in assay [1], in assay [2], in [3], in assay [4], in assay [5] and in assay [6] was more than 100 µM throughout. Moreover, the TGI in assay [7] and in assay [8] was more than 100 µM throughout.
Regarding `COc1ccc(N=C2SC(=N/N=c3\sc4ccccc4n3C)SC2=Nc2ccc(OC)cc2)cc1`, the TGI was more than 100 µM in assay [1]; more than 100 µM in assay [9]; more than 100 µM in [3]; more than 100 µM in assay [4]; 66 µM in [5]; more than 100 µM in assay [6]. In addition, the TGI in assay [7], in [10] and in assay [8] was more than 100 µM each time.
For `COc1cc(/C=C2\CCC(C)C3C2=NN(C(C)=O)C3c2cc(OC)c(OC)c(OC)c2)cc(OC)c1OC` (configuration not stated), the TGI in assay [1], in assay [2], in assay [9], in [3], in assay [5] and in assay [6] was more than 100 µM in each case. Besides, the TGI in [7], in [10] and in assay [8] was more than 100 µM each time.
Regarding `CCC(C)(C)/C(CC(O)(C(F)(F)F)C(F)(F)F)=N\O`, the TGI in assay [1], in assay [2], in assay [9], in [3], in assay [4] and in [5] was more than 100 µM in each case. Besides, the TGI in assay [6], in [7] and in [8] was more than 100 µM each time.
In the case of `Cc1cc2nc3c(C#N)c(-c4ccccc4)cc(Nc4ccc(Cl)cc4)n3c2cc1C`, the TGI in assay [1], in [2], in assay [9], in [3], in assay [4] and in assay [5] was more than 100 µM throughout. Further, the TGI in [10] and in assay [8] was more than 100 µM throughout.
As for `CC(=O)NC1C(OCc2ccccc2)OC(CO)C(O)C1OC(C)C(=O)NC(C)C(=O)NC(CCC(=O)NCCCNc1c2ccccc2nc2cccc([N+](=O)[O-])c12)C(N)=O` (configuration not stated), the TGI in assay [1] was more than 100 µM; in assay [2] it was more than 100 µM; in assay [9] it was 8.78 µM; in assay [3], 6.32 µM; in [4], 65.7 µM; in [5], 3.26 µM. For the same molecule, the figures for the TGI in [7], in [10] and in [8] were 3.82 µM, more than 100 µM and 11 µM, respectively.
Consider `C=C1C[C@@H]2O[C@H]3[C@H]4[C@@H](C[C@@H](C)[C@@H](OC(C)=O)[C@H]42)[C@@H](C)CO[C@@]3(C)[C@H](OC(C)=O)C[C@H]1O`, for which the TGI in assay [1], in assay [2], in [3], in assay [4], in [5] and in [6] was more than 100 µM throughout. The TGI in assay [7], in assay [10] and in [8] was more than 100 µM each time.
As for `O=C(O)c1nc(-c2ccccc2)ncc1-c1nnnn1-c1ccccc1`, the TGI in assay [1], in assay [9], in [3], in assay [4], in assay [5] and in assay [6] was more than 100 µM each time. In addition, the TGI in [7], in assay [10] and in [8] was more than 100 µM in each case.
With `COc1ccc(C2CC(c3cccc(Nc4ccncc4)c3)=NN2c2cc(Cl)cc(Cl)c2)cc1` (configuration not stated), the GI50 in [2] was 1.67 µM; in assay [9], 2.08 µM; in assay [3], 2.2 µM; in assay [4] it was 1.72 µM; in assay [6] it was 1.89 µM; in assay [7], 1.9 µM. The GI50 was 1.67 µM in assay [10] and 1.62 µM in [8]. In addition, the TGI in [2] came out at 3.12 µM; in [9], 4.66 µM; in assay [3], 5.62 µM; in assay [4], 3.27 µM; in assay [6], 3.58 µM; in assay [7], 3.94 µM. The TGI was 3.3 µM in [10] and 3.16 µM in assay [8].
`COc1cc(C[S+]2CCCC2)c(SC)cc1C[S+]1CCCC1`: the TGI in [2], in assay [9], in [3], in assay [7] and in [8] was more than 100 µM each time.
`O=C(c1ccc(O)cc1)C1c2c3c(cc(O)c2C(c2ccc(O)cc2)C1c1cc(O)cc(O)c1)OC(c1ccc(O)cc1)C3c1cc2c(cc1O)OC(c1ccc(O)cc1)C2c1cc(O)cc(O)c1` (configuration not stated): the TGI in [1], in [2], in [9], in assay [3], in [7] and in assay [8] was more than 12.5 µM in each case.
In the case of `Cc1ccc(/C=N/n2c(=O)[nH]c3ccccc3c2=O)cc1`, the TGI in assay [1], in assay [9], in [3], in assay [5], in [6] and in assay [7] was more than 100 µM in each case. Further, the TGI in [10] and in assay [8] was more than 100 µM throughout.
`CC1CC(N)=Nc2ccccc2N1` (configuration not stated): the TGI in assay [1], in assay [2], in assay [9], in assay [3], in [4] and in [5] was more than 100 µM each time. Also, the TGI in [6], in assay [7] and in [8] was more than 100 µM each time.
As to `O=S(=O)(c1ccccc1)n1c2cc3cccnc3nc2c2cccnc21`, the TGI in assay [1], in [2], in assay [9], in [3], in [4] and in assay [5] was more than 100 µM in each case. The TGI in assay [10] and in [8] was more than 100 µM throughout.
With `CCC(=O)NC(Nc1cccc(F)c1C)(C(F)(F)F)C(F)(F)F`, the TGI in [1], in assay [9], in assay [3], in assay [4], in [5] and in assay [6] was more than 100 µM throughout. For the same molecule, the TGI in assay [7] and in [10] was more than 100 µM throughout.
Turning to `C[C@@H]1C[C@H]2[C@@H]3CCC4=CC(=O)C=C[C@]4(C)[C@@]3(Cl)[C@@H](Cl)C[C@]2(C)[C@@]1(O)C(=O)COP(=O)(O)O`, the TGI in assay [1], in [2], in assay [9], in assay [3], in assay [5] and in assay [6] was more than 100 µM each time. The TGI in assay [7] was more than 100 µM; in assay [10], more than 100 µM; in assay [8] it was 33.1 µM.
For `S=C(NCc1ccccc1)c1nc[nH]c1C(=S)NCc1ccccc1`, the TGI turned out to be 18.6 µM in assay [1]; 20 µM in [2]; 26.2 µM in [9]; 19.8 µM in assay [3]; 16.3 µM in assay [4]; 22.3 µM in assay [5]. Further, the TGI in [6] amounted to 21.6 µM; in [7], 13.4 µM; in assay [8], 25 µM.
As to `CC(C)C1OC23CCCCC2C(C#N)(C#N)C1(C#N)C(=N)O3` (configuration not stated), the TGI in assay [1] was more than 100 µM; in [3], 46.6 µM; in [4], more than 100 µM; in assay [5], 39.7 µM; in assay [6], 94.8 µM; in assay [7], 58 µM. The values for the TGI in [10] and in assay [8] were 36.6 µM and 31.4 µM, respectively.
Take `COc1ccc(C2S/C(=C\c3ccccc3O)C(=O)N2NC(=O)Cc2ccccc2)cc1` (configuration not stated): the TGI in [2], in assay [9], in assay [3], in assay [7] and in [8] was more than 100 µM throughout.
`S=C(c1c[nH]c2ccccc12)N1CCOCC1`: the TGI in assay [1], in assay [9], in assay [3], in [4], in assay [5] and in assay [6] was more than 100 µM in each case. In addition, the TGI in assay [7], in assay [10] and in assay [8] was more than 100 µM in each case.
Turning to `C[C@]12C=CC(=O)C=C1CC[C@H]1[C@@H]3C[C@@H](O)[C@](O)(C(=O)CO)[C@@]3(C)C[C@H](O)[C@@]12F`, the TGI in assay [1], in [2], in assay [9], in assay [3], in assay [7] and in [8] was more than 100 µM in each case.
With `C=C1CC(c2ccc(OCCCN3C(=O)c4ccccc4C3=O)c(OC)c2)OC1=O` (configuration not stated), the TGI in assay [1] is 28 µM; in assay [9], 30.6 µM; in [3], 23 µM; in [4] it was more than 100 µM; in assay [5], 30.5 µM; in assay [6], 24.5 µM. Further, the TGI in assay [7] worked out at 10.2 µM; in assay [10], 0.48 µM; in [8], 25.4 µM.
Consider `Cc1ccc2c(n1)C(=O)c1[nH]c3ccccc3c1C2=O`, for which the GI50 in [1] is 2.7 µM; in assay [2] it was 1.13 µM; in [3] it was 3.82 µM; in assay [4], 2.28 µM; in [5], 1.85 µM; in assay [6] it was 1.19 µM. Further, the GI50 is 0.557 µM in assay [7], 0.586 µM in assay [10] and 2 µM in assay [8]. For the same molecule, the TGI was more than 100 µM in assay [1]; 2.35 µM in [2]; more than 100 µM in assay [3]; 9.29 µM in [4]; 73.6 µM in assay [5]; 2.53 µM in assay [6]. Moreover, the TGI came to 1.88 µM in assay [7], 2.63 µM in [10] and 6.06 µM in assay [8].
With `CCCCCN=Cc1c(O)c(O)c(C(C)C)c2cc(C)c(-c3c(C)cc4c(C(C)C)c(O)c(O)c(C=NCCCCC)c4c3O)c(O)c12`, the TGI is 18.8 µM in assay [1]; more than 100 µM in [9]; 47.3 µM in assay [3]; more than 100 µM in assay [4]; 65.1 µM in assay [5]; more than 100 µM in assay [6]. Also, the TGI in [7] was 33 µM; in [10] it was 27.2 µM; in assay [8], more than 100 µM.
On to `O=[N+]([O-])c1ccc(C=C2C(Cl)=C(Cl)C(Cl)=C2Cl)cc1`, for which the GI50 in assay [1] was 9.68 µM; in [2], 2.42 µM; in assay [9], 1.96 µM; in [3], 2.01 µM; in [4], 3.05 µM; in [5], 3.39 µM. Further, the results for the GI50 in assay [7], in assay [10] and in assay [8] were 4.24 µM, 2.78 µM and 3.02 µM, respectively. For the same molecule, the TGI in [1] was more than 100 µM; in assay [2], 6.1 µM; in assay [9], 4.38 µM; in assay [3], 4.4 µM; in [4] it was 17.2 µM; in [5] it was more than 100 µM. Besides, the results for the TGI in assay [7], in assay [10] and in assay [8] were 24.4 µM, 10.9 µM and more than 100 µM, respectively.
`CNC(=S)N(C)C(=S)Nn1c(=O)c(C)nn(C)c1=S`: the TGI in assay [1], in assay [2], in [9], in [3], in assay [7] and in assay [8] was more than 100 µM in each case.
Turning to `Clc1c(Cl)c(Cl)c2nn(C3CCCO3)nc2c1Cl` (configuration not stated), the TGI in assay [1], in [9], in assay [3], in assay [4], in assay [5] and in assay [6] was more than 100 µM throughout. For the same molecule, the TGI in assay [7], in assay [10] and in [8] was more than 100 µM each time.
For the molecule `N#C/C(C(=O)Nc1ccccc1)=C(/N)N1CCOCC1`, the TGI in [1], in [9], in assay [4], in assay [6], in assay [7] and in [10] was more than 100 µM each time. Besides, in assay [8], the TGI is more than 100 µM.
